Experimental findings from patent publication US11612586B2, “Indole regulation of antigen presenting cells” (THE TEXAS A&M UNIVERSITY SYSTEM, priority 2016, dated 2023) are described below.

One experiment has as its system TNF. Put plainly: TNF production in DC2.4 cell line, intracellular staining, flow cytometry. The class given is cell-based, murine. As to the method:
Intracellular staining was performed to assess TNF production.
FIG. 8 illustrates that indole synergizes with TGF-β to inhibit TNF production in DCs. Flow cytometric analysis was performed on DC2.4 cells treated with indole or DMF control for 24 hours in the presence or absence of TGF-β (10 ng/ml). […] Shaded gray areas represent unstimulated samples. Representative histograms from one of three independent experiments.
One important way that DCs shape local immune responses is through the production of cytokines. Cytokine production was addressed in indole-conditioned dendritic cells, first using the murine dendritic cell line, DC2.4. Cells pre-treated with physiologically relevant doses of indole produced less TNF upon stimulation with the bacterial surface component and TLR4 ligand, LPS. Production of TNF was reduced by 50% following treatment with 1 mM indole (FIG. 1). This response is biologically important as LPS serves as the prototypical endotoxin, present on the surface of virtually all gram-negative bacteria including gut-resident commensal strains.

In another experiment the test system is IL-6. Description: IL-6 production in splenic CD11c+ DCs ex vivo. As to conditions: indole overnight, LPS or heat-killed S. typhimurium.
A further experiment has as its system IL-12. Put plainly: IL-12 production in BMDCs, intracellular staining, flow cytometry. Type of experiment: cell-based, mouse. As to the method: Intracellular staining was performed to assess TNF (FIG. 3A) and IL-12 (FIG. 3B) production.
Briefly, bone marrow was harvested from femurs of mice and cultured for 7 days in the presence of DC-skewing cytokines, GM-CSF and IL-4. […] The pro-inflammatory cytokines, IL-6 and IL-12, were specifically queried. […] Immune cells communicate largely through the production of soluble factors including cytokines, and DCs detect these signals and determine their effector functions accordingly.
The inventors performed a series of assays where bone marrow derived macrophages (BMDMs), bone marrow derived dendritic cells (BMDCs), and splenic dendritic cells (splenic DCs), were exposed to a series of TDMMs, including indole, indole-3-acetate (I3AT), 5-hydroxyindole (5HI), and indole-3-pyruvate (I3P), as well as indole-3-carbinol (I3C; a plant derived compound) to be used for a positive control (1 mM for 24 hours). The BMDMs and BMDCs were stimulated with LPS for 4 hours and assayed at day 7 for expression of various pro-inflammatory cytokines. In a similar assay, the BMDMs and BMDCs were stimulated with LPS or CpG, respectively, for 15 minutes and assayed for pAKT and pERK signaling, which is a reflection of pro-inflammatory response.

In a further experiment the test system is Th2 cells. Description: Th2 differentiation in DC-T cell co-culture. The class given is cell-based, mouse. The settings on record: co-culture with DCs conditioned with indole. As to the method: FIGS. 19A-19C graphically illustrate that indole-conditioned DCs inhibit Th1, Th2, and Th17 differentiation. Naïve CD4+CD25-T cells from OT-II TCR transgenic mice were isolated by column purification. Naïve T cells were then co-cultured with OVA323-339 peptide-loaded BMDCs for 72 hours in the presence or absence of lineage-skewing cytokines (described in methods). BMDCs were previously treated with indole, RA, or DMF from day 3. For the last 5 hours of culture, T cells were restimulated with PMA and ionomycin in the presence of Golgiplug, followed by intracellular staining. Cytokine production was determined to assess differentiation of Th1 (FIG. 19A), Th2 (FIG. 19B), and Th17 CD4+T (FIG. 19C) cells. Mean of three independent experiments. * indicates p<0.05 for one-way ANOVA followed by Dunnett's post-test.
In order to determine whether the indole-conditioned DC induction of Tregs was specific to this lineage, additional T cell fates were quieried. Activated CD4+T helper cells are typically divided into the subsets Th1, Th2, Th17, and Treg, based on their expression of transcription factors and pattern of cytokine secretion. The antigen-specific co-culture system was used to investigate these remaining traditional T cell lineages with the addition of an endpoint PMA/Ionomycin stimulation to induce cytokine secretion. […]

Description for IL-6: Cultures were then stained for CD11c and intracellular TNF, IL-6, and IL-12. Analysis was confined to CD11c+ DCs and maximal cytokine production was normalized to solvent control (DMF).
Production of pro-inflammatory cytokines in CD11c+ DCs was assessed via flow cytometry.
All primary cells were cultured in RPMI 1640 supplemented with 2-mercaptoethanol, gentamicin, penicillin, streptomycin, and 10% FCS (all from Life Technologies). […] Stimulation of dendritic cells at the given concentrations of LPS or heat-killed S. typhimurium were performed for 4 hours (DC2.4 and BMDCs) or 6 hours (primary splenic DCs) in the presence of GolgiPlug protein transport inhibitor (BD Biosciences) to measure cytokine production, or for 24 hours (co-stimulatory markers).

Regarding `c1ccc2[nH]ccc2c1` [Indole, indole], the “reduction of TNF production” value in the experiment with TNF (DC2.4, 1 mM indole pre-treatment, LPS stimulation) is recorded as 50%. Besides, in the experiment with TNF (DC2.4, indole 24 hours with TGF-β (10 ng/ml), LPS 1 ug/ml 4 hours), the “inhibition of TNF production with concurrent TGF-β treatment” value is “marked synergistic effect”. The “inhibition of IL-6 production” value in the experiment with IL-6 is given as ≥ 2 fold. Further, the “reduction in IL-12” value with IL-12 (BMDCs exposed to indole from day 3 of 7 day culture, LPS stimulation) was 40%. In the experiment on IL-12 (BMDCs, 1 mM TDMM 24 hours, LPS (1 ug/ml) 4 hours), the IL-12 entry is listed as “↓↓”. Besides, the “inhibition of IL-12 production” value in the experiment with IL-12 (BMDCs, indole 24 hours (overnight), LPS 1 ug/ml 4 hours) is ≥ 2 fold. Besides, in the experiment with Th2 cells, the “development of Th2 lineage” value is “stark inhibition”.
